Data taken from PubChem BioAssay (NCI).
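Values below derive from 48-hour exposures of cells grown in 96-well plates, with endpoints linearly interpolated between the two concentrations bracketing the appropriate inhibition level. TGI denotes the concentration required for complete inhibition of growth.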

Experiments:
Test in all cases: NCI-60 cell line screen, 48 h
786-0 renal = tested on: 786-0 renal
A498 renal = tested on: A498 renal
A549 NSCLC = tested on: A549 NSCLC
ACHN renal = tested on: ACHN renal
CAKI-1 renal = tested on: CAKI-1 renal
CCRF-CEM leukemia = tested on: CCRF-CEM leukemia
COLO 205 colon = tested on: COLO 205 colon
DLD-1 colon = tested on: DLD-1 colon
DMS 114 small cell lung = tested on: DMS 114 small cell lung
DMS 273 small cell lung = tested on: DMS 273 small cell lung
EKVX NSCLC = tested on: EKVX NSCLC
HL-60(TB) leukemia = tested on: HL-60(TB) leukemia
HOP-62 NSCLC = tested on: HOP-62 NSCLC
HOP-92 NSCLC = tested on: HOP-92 NSCLC
HT29 colon = tested on: HT29 colon
IGROV1 ovarian = tested on: IGROV1 ovarian
K-562 leukemia = tested on: K-562 leukemia
KM12 colon = tested on: KM12 colon
KM20L2 colon = tested on: KM20L2 colon
LOX IMVI melanoma = tested on: LOX IMVI melanoma
LXFL 529 NSCLC = tested on: LXFL 529 NSCLC
M19-MEL melanoma = tested on: M19-MEL melanoma
MALME-3M melanoma = tested on: MALME-3M melanoma
MOLT-4 leukemia = tested on: MOLT-4 leukemia
NCI-H226 lung = tested on: NCI-H226 lung
NCI-H23 lung = tested on: NCI-H23 lung
NCI-H460 lung = tested on: NCI-H460 lung
NCI-H522 lung = tested on: NCI-H522 lung
OVCAR-4 ovarian = tested on: OVCAR-4 ovarian
OVCAR-5 ovarian = tested on: OVCAR-5 ovarian
OVCAR-8 ovarian = tested on: OVCAR-8 ovarian
RXF 393 renal = tested on: RXF 393 renal
SF-268 CNS = tested on: SF-268 CNS
SF-295 CNS = tested on: SF-295 CNS
SF-539 CNS = tested on: SF-539 CNS
SK-MEL-2 melanoma = tested on: SK-MEL-2 melanoma
SK-MEL-28 melanoma = tested on: SK-MEL-28 melanoma
SK-MEL-5 melanoma = tested on: SK-MEL-5 melanoma
SK-OV-3 ovarian = tested on: SK-OV-3 ovarian
SN12C renal = tested on: SN12C renal
SNB-19 CNS = tested on: SNB-19 CNS
SNB-78 CNS = tested on: SNB-78 CNS
SR leukemia = tested on: SR leukemia
SW-620 colon = tested on: SW-620 colon
TK-10 renal = tested on: TK-10 renal
U251 CNS = tested on: U251 CNS
UACC-257 melanoma = tested on: UACC-257 melanoma
UACC-62 melanoma = tested on: UACC-62 melanoma
UO-31 renal = tested on: UO-31 renal
HCT-15 colon = tested on: HCT-15 colon
HOP-18 NSCLC = tested on: HOP-18 NSCLC
M14 melanoma = tested on: M14 melanoma
OVCAR-3 ovarian = tested on: OVCAR-3 ovarian
RPMI-8226 leukemia = tested on: RPMI-8226 leukemia
SNB-75 CNS = tested on: SNB-75 CNS
XF 498 CNS = tested on: XF 498 CNS

How did the TGI (786-0 renal) turn out when O=c1cc2n(c(=O)[nH]1)C1OC(C(O)C1O)[C@H]2CCO (stereo not given in full) was run?
The TGI was over 100 µM.

And the TGI (A498 renal)?
The TGI was over 100 µM.

What about the TGI (A549 NSCLC) of the same molecule?
The TGI was over 100 µM.

What about the TGI (ACHN renal) of the same molecule?
The TGI was over 100 µM.

And the TGI (CAKI-1 renal)?
The TGI was over 100 µM.

And the TGI (CCRF-CEM leukemia)?
Its TGI is over 100 µM.

What about the TGI (COLO 205 colon) of the same molecule?
Its TGI is over 100 µM.

What about the TGI (DLD-1 colon) of the same molecule?
The TGI was over 100 µM.

What about the TGI (DMS 114 small cell lung) of the same molecule?
The TGI was over 100 µM.

What about the TGI (DMS 273 small cell lung) of the same molecule?
The TGI was over 100 µM.

And the TGI (EKVX NSCLC)?
The TGI was over 100 µM.

What about the TGI (HL-60(TB) leukemia) of the same molecule?
Its TGI is over 100 µM.

What about the TGI (HOP-62 NSCLC) of the same molecule?
The TGI was over 100 µM.

And the TGI (HOP-92 NSCLC)?
Its TGI is over 100 µM.

And the TGI (HT29 colon)?
The TGI was over 100 µM.

What about the TGI (IGROV1 ovarian) of the same molecule?
The TGI was over 100 µM.

And the TGI (K-562 leukemia)?
The TGI was over 100 µM.

What about the TGI (KM12 colon) of the same molecule?
Its TGI is over 100 µM.

And the TGI (KM20L2 colon)?
Its TGI is over 100 µM.

And the TGI (LOX IMVI melanoma)?
The TGI was over 100 µM.

And the TGI (LXFL 529 NSCLC)?
Its TGI is over 100 µM.

And the TGI (M19-MEL melanoma)?
The TGI was over 100 µM.

And the TGI (MALME-3M melanoma)?
Its TGI is over 100 µM.

And the TGI (MOLT-4 leukemia)?
Its TGI is over 100 µM.

What about the TGI (NCI-H226 lung) of the same molecule?
Its TGI is over 100 µM.

What about the TGI (NCI-H23 lung) of the same molecule?
The TGI was over 100 µM.

And the TGI (NCI-H460 lung)?
The TGI was over 100 µM.

And the TGI (NCI-H522 lung)?
The TGI was over 100 µM.

What about the TGI (OVCAR-4 ovarian) of the same molecule?
Its TGI is over 100 µM.

What about the TGI (OVCAR-5 ovarian) of the same molecule?
The TGI was over 100 µM.

And the TGI (OVCAR-8 ovarian)?
The TGI was over 100 µM.

And the TGI (RXF 393 renal)?
The TGI was over 100 µM.

What about the TGI (SF-268 CNS) of the same molecule?
The TGI was over 100 µM.

And the TGI (SF-295 CNS)?
The TGI was over 100 µM.

And the TGI (SF-539 CNS)?
Its TGI is over 100 µM.

And the TGI (SK-MEL-2 melanoma)?
The TGI was over 100 µM.

And the TGI (SK-MEL-28 melanoma)?
Its TGI is over 100 µM.

What about the TGI (SK-MEL-5 melanoma) of the same molecule?
The TGI was over 100 µM.

What about the TGI (SK-OV-3 ovarian) of the same molecule?
Its TGI is over 100 µM.

And the TGI (SN12C renal)?
Its TGI is over 100 µM.

And the TGI (SNB-19 CNS)?
Its TGI is over 100 µM.

And the TGI (SNB-78 CNS)?
Its TGI is over 100 µM.

What about the TGI (SR leukemia) of the same molecule?
The TGI was over 100 µM.

What about the TGI (SW-620 colon) of the same molecule?
The TGI was over 100 µM.

What about the TGI (TK-10 renal) of the same molecule?
Its TGI is over 100 µM.

What about the TGI (U251 CNS) of the same molecule?
The TGI was over 100 µM.

What about the TGI (UACC-257 melanoma) of the same molecule?
Its TGI is over 100 µM.

And the TGI (UACC-62 melanoma)?
The TGI was over 100 µM.

What about the TGI (UO-31 renal) of the same molecule?
The TGI was over 100 µM.

Which results are given for CCOc1ccc(C2=C(Cl)c3cc(OC)c(OC)cc3C2Cl)cc1 (stereo not given)?
TGI (A498 renal): 90.4 µM; TGI (ACHN renal): > 100 µM; TGI (CAKI-1 renal): > 100 µM; TGI (CCRF-CEM leukemia): > 100 µM; TGI (COLO 205 colon): > 100 µM; TGI (DLD-1 colon): > 100 µM; TGI (DMS 114 small cell lung): 56.2 µM; TGI (DMS 273 small cell lung): > 100 µM; TGI (EKVX NSCLC): > 100 µM; TGI (HCT-15 colon): > 100 µM; TGI (HL-60(TB) leukemia): 49.4 µM; TGI (HOP-18 NSCLC): > 100 µM; TGI (HOP-92 NSCLC): 86.5 µM; TGI (HT29 colon): > 100 µM; TGI (IGROV1 ovarian): > 100 µM; TGI (KM20L2 colon): > 100 µM; TGI (LOX IMVI melanoma): 45.1 µM; TGI (LXFL 529 NSCLC): > 100 µM; TGI (M14 melanoma): > 100 µM; TGI (M19-MEL melanoma): > 100 µM; TGI (MALME-3M melanoma): > 100 µM; TGI (MOLT-4 leukemia): 78.4 µM; TGI (NCI-H226 lung): > 100 µM; TGI (NCI-H23 lung): > 100 µM; TGI (NCI-H460 lung): > 100 µM; TGI (NCI-H522 lung): 49 µM; TGI (OVCAR-3 ovarian): > 100 µM; TGI (OVCAR-8 ovarian): > 100 µM; TGI (RPMI-8226 leukemia): 73 µM; TGI (SF-268 CNS): > 100 µM; TGI (SF-295 CNS): > 100 µM; TGI (SF-539 CNS): > 100 µM; TGI (SK-MEL-2 melanoma): 70.6 µM; TGI (SK-MEL-28 melanoma): > 100 µM; TGI (SK-MEL-5 melanoma): 39.3 µM; TGI (SK-OV-3 ovarian): > 100 µM; TGI (SN12C renal): > 100 µM; TGI (SNB-19 CNS): > 100 µM; TGI (SNB-75 CNS): > 100 µM; TGI (SNB-78 CNS): > 100 µM; TGI (SW-620 colon): > 100 µM; TGI (TK-10 renal): > 100 µM; TGI (U251 CNS): 39.8 µM; TGI (UACC-62 melanoma): > 100 µM; TGI (UO-31 renal): > 100 µM; TGI (XF 498 CNS): 42.9 µM
